# Assay results published in publication PMC10004634 (PLOS ONE, 2023).
# “Also recorded” adds a separate entry of the source.
# Tests used:
# RIPK2 = RIPK2 (Homo sapiens, UniProt O43353); experiment: KINOMEscan binding assay; details: 300 nM; read-out: inhibition of kinase binding (KINOMEscan)
# TMD8 cells [1] = experiment: RT-qPCR of IRF4, BCL6, MYC mRNA; assay type: cell-based, human; details: 24 h
# Description: After culturing, total RNA was isolated from cells using the RNeasy Plus Mini Kit (Qiagen), then cDNA was prepared from total RNA using the SuperScript VILO cDNA Synthesis Kit (Invitrogen) following the kit instructions. For quantification of each mRNA expression level, PCR was performed using TaqMan Fast Universal PCR Master Mix (Thermo Fisher Scientific) under the following conditions with the AriaMx Real Time PCR System (Agilent Technologies): 95°C for 3 min, followed by 40 cycles at 95°C for 5 s and 60°C for 20 s with continuous fluorescence measurement. All PCRs were performed in triplicate, and the mRNA expression of GAPDH was used as an internal control. The results (fold changes of the threshold cycle [Ct] relative to the control group) were obtained using the 2^−ΔΔCt method. The TaqMan probes for IRF4 (Assay ID: Hs00180031_m1), BCL6 (Assay ID: Hs00153368_m1), MYC (Assay ID: Hs00153408_m1), and GAPDH (Assay ID: Hs02786624_g1) were purchased from Thermo Fisher Scientific. Statistical tests were performed with the SAS 9.4 (SAS Institute Japan Ltd., Tokyo, Japan) TS1M4-based EXSUS system version 10.1.3 (CAC Corporation, Tokyo, Japan). The t-test or Dunnett test was used to compare mRNA expression in the DMSO- and compound-treated groups. The statistical tests were two-sided with a 5% significance level.
# TMD8 cells [2] = experiment: Western blot of IRF4, BCL6, c-MYC protein expression; assay type: cell-based, human; details: 24 h, 1 μM
# Description: After culturing, cells were harvested and lysed with cell lysis buffer (Cell Signaling Technology, Inc.) containing 1 mM AEBSF (Calbiochem, #101500). As a positive control of BTK autophosphorylation for western blot analysis, TMD8 cells were treated with hydrogen peroxide (H2O2; final concentration: 6 mM) for 10 min, harvested as a control sample, and then lysed with the cell lysis buffer.
# Each mixture of cells and cell lysis buffer was incubated on ice for 5 min, then centrifuged at 13400 × g and 4°C for 10 min. Total lysates were loaded on 4%–12% SDS-PAGE (Bio-Rad) and transferred to a polyvinylidene difluoride (PVDF) membrane (Immobilon-P Transfer Membrane, Millipore Corporation). The blot was incubated in Tris-buffered saline with Tween 20 (TBS-T, Cell Signaling Technology, Inc.) containing 2 w/v% ECL Advance Blocking Agent (GE Healthcare Life Sciences, b) for 1 h at room temperature. The blocked PVDF membranes were immersed in TBS-T and washed three times with shaking at room temperature for 10 min. The membrane was incubated with primary antibody in TBS-T containing 2 w/v% ECL Advance Blocking Agent with gentle agitation overnight at 5°C in a cold storage room or for 1 h at room temperature. […] Lumino-image analyzer (LAS-1000 Plus system, Fuji Photo Film Co., Ltd.) and Image Reader LAS-1000 Lite version 1.3 (Fuji Photo Film Co., Ltd.) were used to visualize bands. […]
# [3] = test system: TMD8 subcutaneous xenograft; experiment: TMD8 subcutaneous xenograft model, tumor volume; assay type: in vivo, mouse; details: SCID mice; 1, 3, 10 mg/kg BID orally, 21 days
# Description: The present study was conducted in compliance with the Guidance for Animal Experiments, the Ethical Standards for Experiments using Human Tissues, and the Standards for Safety Management of Pathogens established by Ono Pharmaceutical Co., Ltd. Female C.B-17/Icr-scid/scidJcl mice (hereafter referred to as severe combined immunodeficient [SCID] mice) were obtained from CLEA Japan, Inc. (Tokyo, Japan). The age at the beginning of the experiment was 6 weeks. To establish the TMD8 xenograft model, TMD8 cell suspension (0.1 mL, 1 × 10^8 cells/mL) was subcutaneously injected into the right flank of SCID mice under pentobarbital anesthesia. […] Tumor diameters and body weight were measured every 3 or 4 days after group assignment. The tumor growth inhibition rate (%) in the tirabrutinib-treated groups, versus the vehicle group, was calculated based on tumor volume. Statistical tests were performed with the SAS 9.2 (SAS Institute Japan Ltd., Tokyo, Japan) TS2M3-based EXSUS system version 7.7.1 (CAC Corporation, Tokyo, Japan). The Dunnett test was used to compare tumor volume in the tirabrutinib- and vehicle-treated groups, and linear regression analysis was used to study dose response in the tirabrutinib groups. The statistical tests were two-sided with a 5% significance level.
# [4] = tirabrutinib 1 μM, BMS-345541 10 μM, MK-2206 1 μM, refametinib 0.1 μM
# RIPK2, sequence (O43353 whole entry): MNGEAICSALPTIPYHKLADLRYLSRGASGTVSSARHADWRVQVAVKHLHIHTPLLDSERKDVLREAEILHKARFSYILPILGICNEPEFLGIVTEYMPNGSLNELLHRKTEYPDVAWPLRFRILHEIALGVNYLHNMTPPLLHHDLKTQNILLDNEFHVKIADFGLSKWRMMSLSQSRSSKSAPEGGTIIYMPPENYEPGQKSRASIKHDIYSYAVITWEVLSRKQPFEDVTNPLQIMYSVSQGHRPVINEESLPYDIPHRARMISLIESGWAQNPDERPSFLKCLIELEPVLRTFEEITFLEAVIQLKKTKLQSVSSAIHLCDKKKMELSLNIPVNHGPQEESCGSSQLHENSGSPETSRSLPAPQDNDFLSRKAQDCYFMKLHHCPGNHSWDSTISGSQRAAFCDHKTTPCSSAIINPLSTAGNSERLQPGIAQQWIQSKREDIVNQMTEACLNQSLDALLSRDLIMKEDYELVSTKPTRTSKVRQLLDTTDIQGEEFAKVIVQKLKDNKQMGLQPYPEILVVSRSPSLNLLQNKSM
smiles,measurement,setting,value
CC#CC(=O)N1CC[C@@H](n2c(=O)n(-c3ccc(Oc4ccccc4)cc3)c3c(N)ncnc32)C1 [Tirabrutinib],inhibition at 0.3 µM,RIPK2,67%
same,BCL6 mRNA expression,TMD8 cells [1]; 1 μM,upregulated
same,IRF4 mRNA expression,TMD8 cells [1]; [4],downregulated; also recorded: strongly inhibited
same,MYC mRNA expression,TMD8 cells [1]; [4],partially downregulated
same,BCL6 protein expression,TMD8 cells [2],not changed
same,IRF4 protein expression,TMD8 cells [2],downregulation
same,MYC protein expression,TMD8 cells [2],downregulation
same,anti-tumor effect (tumor volume),[3],dose-dependent anti-tumor effect
